According to US8974737B2, “Space Disinfection” (Saban Ventures PTY Limited, priority 2005, dated 2015):
Where two headings read alike, the source gives them in different places.

Experiments:
[1] = tested on: Bacillus stearothermophillus; conditions: at 550 ppm; on both the walls and floor
Procedure: (§1) Samples were coated with an inoculum at levels of approximately log 6 and air dried for 2 hours on the plastic petri dish (Techno-Plas, Australia) in a laminar flow cabinet. The samples were placed in various positions in the room including on the walls, floor and ceiling.
(§2) Unless otherwise stated, the operating conditions were: • Solution: 35% peroxide • Temp: 25 degrees • RH: fluctuated 45% to ˜65%. Sometimes 75% • Nebulizer array 2.4 MHz • Peroxide vapour: 300-500 ppm • Air flow post heater: 400-600 cubic meters per hour. • Heater Temp: 80-90 degrees • Peroxide delivery: Optimally approximately 0.75 gram per cubic meter per minute, ie […] for the 8 cubic meter room.

Aspergillus niger [2] = conditions: 69 cubic meters, peroxide vapour 500 ppm, contact time 30 min
Procedure: as §1, §2

Pseudomonas aeruginosa = conditions: 8 cubic meters
Excerpt: (§3) The components of the device included a nebuliser array, (6×2 cm diameter transducers in a circular array), a heater element, a first and second fan and a dehumidifier system. The dehumidifier used had been a small air conditioning unit positioned appropriately within the space. The purpose of the first fan was to propel nanoparticles from the heater into the space and the purpose of the second fan was to ensure an equal distribution of the aerosol to all surfaces within the space.
(§4) Tests were conducted in an 8 cubic meter volume of cubic shape.
as §1, §2
The dishes and lids are specifically designed to allow gas exchange with an incubator environment while keeping the dish free from external microbial contamination.

Aspergillus niger [3] = conditions: 8 cubic meters
Excerpt: as §3, §4, §1, §2

[4] = closed carriers, peroxide vapour 300 ppm, contact time 20 min
[5] = open carriers, peroxide vapour 50 ppm, contact time 5 min
[6] = open carriers, peroxide vapour 50 ppm, contact time 10 min
[7] = open carriers, peroxide vapour 50 ppm, contact time […]
[8] = open carriers, peroxide vapour 200 ppm, contact time 5 min
[9] = open carriers, peroxide vapour 200 ppm, contact time 10 min
[10] = open carriers, peroxide vapour 200 ppm, contact time 20 min
[11] = open carriers, peroxide vapour 200 ppm, contact time […]
[12] = open carriers, peroxide vapour 350 ppm, contact time 5 min
[13] = open carriers, peroxide vapour 350 ppm, contact time 10 min
[14] = open carriers, peroxide vapour 350 ppm, contact time 20 min
[15] = open carriers, peroxide vapour 350 ppm, contact time […]
[16] = peroxide vapour 250 ppm, contact time 5 min
[17] = peroxide vapour 250 ppm, contact time 10 min
[18] = peroxide vapour 250 ppm, contact time 20 min
[19] = peroxide vapour 250 ppm, contact time 30 min
[20] = peroxide vapour 500 ppm, contact time 5 min
[21] = peroxide vapour 500 ppm, contact time 10 min
[22] = peroxide vapour 500 ppm, contact time 20 min
[23] = peroxide vapour 500 ppm, contact time 30 min
[24] = Table 4, peroxide vapour 350 ppm, contact time 15 min
[25] = Table 4, peroxide vapour 550 ppm, contact time 15 min
[26] = Table 4, peroxide vapour 550 ppm, contact time 20 min
[27] = Table 4, peroxide vapour 550 ppm, contact time 30 min

OO [Peroxide, hydrogen peroxide]
log reductions [1]: greater than 6 log reductions
Floor (log reduction) (Aspergillus niger [2]; closed): 6.7 log reduction
Wall (log reduction) (Aspergillus niger [2]; closed): 6.7 log reduction
Floor (log reduction) (Aspergillus niger [2]; open): 6.7 log reduction
Wall (log reduction) (Aspergillus niger [2]; open): 6.7 log reduction
Wall (log reduction) (Pseudomonas aeruginosa; closed carriers, peroxide vapour 300 ppm, contact time 5 min): 6.7 log reduction
Wall (log reduction) (Pseudomonas aeruginosa; closed carriers, peroxide vapour 300 ppm, contact time 10 min): 6.3 log reduction
Floor (log reduction) (Pseudomonas aeruginosa; [4]): 5.8 log reduction
Wall (log reduction) (Pseudomonas aeruginosa; [4]): 6.7 log reduction
Floor (log reduction) (Pseudomonas aeruginosa; [5]): TNTC
Wall (log reduction) (Pseudomonas aeruginosa; [5]): 3.6 log reduction
Floor (log reduction) (Pseudomonas aeruginosa; [6]): TNTC
Wall (log reduction) (Pseudomonas aeruginosa; [6]): 4.3 log reduction
Floor (log reduction) (Pseudomonas aeruginosa; [7]): TNTC
Wall (log reduction) (Pseudomonas aeruginosa; [7]): 3.5 log reduction
Floor (log reduction) (Pseudomonas aeruginosa; [8]): 5.2 log reduction
Wall (log reduction) (Pseudomonas aeruginosa; [8]): 5.7 log reduction
Floor (log reduction) (Pseudomonas aeruginosa; [9]): 3.4 log reduction
Wall (log reduction) (Pseudomonas aeruginosa; [9]): 5.7 log reduction
Floor (log reduction) (Pseudomonas aeruginosa; [10]): 5.7 log reduction
Wall (log reduction) (Pseudomonas aeruginosa; [10]): 5.7 log reduction
Floor (log reduction) (Pseudomonas aeruginosa; [11]): 4.4 log reduction
Wall (log reduction) (Pseudomonas aeruginosa; [11]): 5.7 log reduction
Floor (log reduction) (Pseudomonas aeruginosa; [12]): 6.1 log reduction
Wall (log reduction) (Pseudomonas aeruginosa; [12]): 5.8 log reduction
Floor (log reduction) (Pseudomonas aeruginosa; [13]): 6.1 log reduction
Wall (log reduction) (Pseudomonas aeruginosa; [13]): 6.1 log reduction
Floor (log reduction) (Pseudomonas aeruginosa; [14]): 6.1 log reduction
Wall (log reduction) (Pseudomonas aeruginosa; [14]): 6.1 log reduction
Floor (log reduction) (Pseudomonas aeruginosa; [15]): 6.1 log reduction
Wall (log reduction) (Pseudomonas aeruginosa; [15]): 4.4 log reduction
Wall (log reduction) Closed carriers (Aspergillus niger [3]; [16]): 5.1 log reduction
Wall (log reduction) Open carriers (Aspergillus niger [3]; [16]): 6.3 log reduction
Wall (log reduction) Closed carriers (Aspergillus niger [3]; [17]): 6.3 log reduction
Wall (log reduction) Open carriers (Aspergillus niger [3]; [17]): 6.3 log reduction
Wall (log reduction) Closed carriers (Aspergillus niger [3]; [18]): 6.3 log reduction
Wall (log reduction) Open carriers (Aspergillus niger [3]; [18]): 6.3 log reduction
Wall (log reduction) Closed carriers (Aspergillus niger [3]; [19]): 6.3 log reduction
Wall (log reduction) Open carriers (Aspergillus niger [3]; [19]): 6.3 log reduction
Wall (log reduction) Closed carriers (Aspergillus niger [3]; [20]): 6.9 log reduction
Wall (log reduction) Open carriers (Aspergillus niger [3]; [20]): 6.9 log reduction
Wall (log reduction) Closed carriers (Aspergillus niger [3]; [21]): 6.9 log reduction
Wall (log reduction) Open carriers (Aspergillus niger [3]; [21]): 6.9 log reduction
Wall (log reduction) Closed carriers (Aspergillus niger [3]; [22]): 6.9 log reduction
Wall (log reduction) Open carriers (Aspergillus niger [3]; [22]): 6.9 log reduction
Wall (log reduction) Closed carriers (Aspergillus niger [3]; [23]): 6.9 log reduction
Wall (log reduction) Open carriers (Aspergillus niger [3]; [23]): 6.9 log reduction
Floor (log reduction) Closed carriers (Aspergillus niger [3]; [24]): 6.1 log reduction
Floor (log reduction) Open carriers (Aspergillus niger [3]; [24]): 6.5 log reduction
Wall (log reduction) Closed carriers (Aspergillus niger [3]; [24]): 5.7 log reduction
Wall (log reduction) Open carriers (Aspergillus niger [3]; [24]): 5.9 log reduction
Floor (log reduction) Closed carriers (Aspergillus niger [3]; [25]): 6.6 log reduction
Floor (log reduction) Open carriers (Aspergillus niger [3]; [25]): 6.7 log reduction
Wall (log reduction) Closed carriers (Aspergillus niger [3]; [25]): 6.3 log reduction
Wall (log reduction) Open carriers (Aspergillus niger [3]; [25]): 6.7 log reduction
Floor (log reduction) Closed carriers (Aspergillus niger [3]; [26]): 7.5 log reduction
Floor (log reduction) Open carriers (Aspergillus niger [3]; [26]): 7.5 log reduction
Wall (log reduction) Closed carriers (Aspergillus niger [3]; [26]): 7.5 log reduction
Wall (log reduction) Open carriers (Aspergillus niger [3]; [26]): 7.5 log reduction
Floor (log reduction) Closed carriers (Aspergillus niger [3]; [27]): 7.5 log reduction
Floor (log reduction) Open carriers (Aspergillus niger [3]; [27]): 7.5 log reduction
Wall (log reduction) Closed carriers (Aspergillus niger [3]; [27]): 6.6 log reduction
Wall (log reduction) Open carriers (Aspergillus niger [3]; [27]): 7.5 log reduction
